Patent US8669251B2, “8-fluorophthalazin-1(2H)-one compounds” (Genentech, Inc., priority 2011, dated 2014)

Tested on: production of CD69 by B lymphocytes in human whole blood
Experiment: CD69 Whole Blood Assay (CD69 Hu Blood FACS)
Assay type: cell-based
Settings: human whole blood activated with goat F(ab')2 anti-human IgM, 20 hours; CD69 on CD20 positive cells by FACS; Table 2
Excerpt: A CD69 Whole Blood Assay can be conducted on Formula I compounds to determine the ability of compounds to inhibit the production of CD69 by B lymphocytes in human whole blood activated by crosslinking surface IgM with goat F(ab′)2 anti-human IgM (Example 907). CD69 is a type II C-type lectin involved in lymphocyte migration and cytokine secretion. CD69 expression represents one of the earliest available indicators of leukocyte activation and its rapid induction occurs through transcriptional activation (Vazquez et al (2009) Jour. of Immunology Published Oct. 19, 2009, doi:10.4049/jimmunol.0900839). Concentration-dependent inhibition of antigen receptor stimulation by selective Btk inhibitors induces cell surface expression of the lymphocyte activation marker CD69 (Honigberg et al (2010) Proc. Natl. Acad. Sci. 107(29):13075-13080). Thus, CD69 inhibition by selective Btk inhibitors may be correlated with therapeutic efficacy of certain B-cell disorders.
Human blood is obtained from healthy volunteers, with the following restrictions: 1 week drug-free, non-smokers. Blood (approximately 20 mls to test 8 compounds) is collected by venipuncture into Vacutainer® (Becton, Dickinson and Co.) tubes with sodium heparin.
Solutions of Formula I and II compounds at 10 mM in DMSO are diluted 1:10 in 100% DMSO, then are diluted by three-fold serial dilutions in 100% DMSO for a ten point dose-response curve. The compounds are further diluted 1:10 in PBS and then an aliquot of 5.5 μl of each compound is added in duplicate to a 2 ml 96-well plate; 5.5 μl of 10% DMSO in PBS is added as control and no-stimulus wells. Human whole blood —HWB (100 μl) is added to each well. After mixing the plates are incubated at 37° C., 5% CO2, 100% humidity for 30 minutes. Goat F(ab′)2 anti-human IgM (10 μl of a 500 μg/ml solution, 50 μg/ml final) is added to each well (except the no-stimulus wells) with mixing and the plates are incubated for an additional 20 hours. At the end of the 20 hour incubation, samples are incubated with fluorescent labeled antibodies for 30 minutes, at 37° C., 5% CO2, 100% humidity. Include induced control, unstained and single stains for compensation adjustments and initial voltage settings. Samples are then lysed with PharM Lyse™ (BD Biosciences Pharmingen) according to the manufacturer's instructions. Samples are then transferred to a 96 well plate suitable to be run on the BD Biosciences HTS 96 well system on the LSRII machine. Data acquired and Mean Fluorescence Intensity values were obtained using BD Biosciences DIVA Software. Results are initially analyzed by FACS analysis software (Flow Jo). […] The inhibitory concentration (IC50, IC70, IC90) values are calculated by Prism version 5, using a nonlinear regression curve fit.

Cn1nc(Nc2cc(-c3ccnc(-n4ncc5cc(C(C)(C)C)cc(F)c5c4=O)c3CO)cn(C)c2=O)cc1C(=O)N1CCCC1 [Compound 144, 6-tert-butyl-8-fluoro-2-[3-(hydroxymethyl)-4-[1-methyl-5-[[1-methyl-5-(pyrrolidine-1-carbonyl)pyrazol-3-yl]amino]-6-oxo-3-pyridyl]-2-pyridyl]phthalazin-1-one]
CD69 Hu Blood FACS (IC70): 0.0203 µM

Cc1cc(Nc2cc(-c3ccnc(-n4ncc5cc(C(C)(C)C)cc(F)c5c4=O)c3CO)cn(C)c2=O)nn1CC(F)F [Compound 145, 6-tert-butyl-2-[4-[5-[[1-(2,2-difluoroethyl)-5-methyl-pyrazol-3-yl]amino]-1-methyl-6-oxo-3-pyridyl]-3-(hydroxymethyl)-2-pyridyl]-8-fluoro-phthalazin-1-one]
CD69 Hu Blood FACS (IC70): 0.163 µM

CN1Cc2cc(Nc3cc(-c4ccnc(-n5ncc6cc(C(C)(C)C)cc(F)c6c5=O)c4CO)cn(C)c3=O)nn2CC1=O [Compound 146, 6-tert-butyl-8-fluoro-2-[3-(hydroxymethyl)-4-[1-methyl-5-[(5-methyl-6-oxo-4,7-dihydropyrazolo[1,5-a]pyrazin-2-yl)amino]-6-oxo-3-pyridyl]-2-pyridyl]phthalazin-1-one]
CD69 Hu Blood FACS (IC70): 0.0209 µM

Cn1cc(-c2ccnc(-n3ncc4cc(C(C)(C)C)cc(F)c4c3=O)c2CO)cc(Nc2ccc(N3CC(O)C3)cn2)c1=O [Compound 147, 6-tert-butyl-8-fluoro-2-[4-[5-[[5-(3-hydroxyazetidin-1-yl)-2-pyridyl]amino]-1-methyl-6-oxo-3-pyridyl]-3-(hydroxymethyl)-2-pyridyl]phthalazin-1-one]
CD69 Hu Blood FACS (IC70): 0.0333 µM

CC(C)C(=O)N1CCn2nc(Nc3cc(-c4ccnc(-n5ncc6cc(C(C)(C)C)cc(F)c6c5=O)c4CO)cn(C)c3=O)cc2C1 [Compound 148, 6-tert-butyl-8-fluoro-2-[3-(hydroxymethyl)-4-[1-methyl-5-[[5-(2-methylpropanoyl)-6,7-dihydro-4H-pyrazolo[1,5-a]pyrazin-2-yl]amino]-6-oxo-3-pyridyl]-2-pyridyl]phthalazin-1-one]
CD69 Hu Blood FACS (IC70): 0.0139 µM

Cn1cc(Nc2cc(-c3ccnc(-n4ncc5cc(C(C)(C)C)cc(F)c5c4=O)c3CO)cn(C)c2=O)nn1 [Compound 149, 6-tert-butyl-8-fluoro-2-[3-(hydroxymethyl)-4-[1-methyl-5-[(1-methyltriazol-4-yl)amino]-6-oxo-3-pyridyl]-2-pyridyl]phthalazin-1-one]
CD69 Hu Blood FACS (IC70): 0.093 µM

CC1OCCn2nc(Nc3cc(-c4ccnc(-n5ncc6cc(C(C)(C)C)cc(F)c6c5=O)c4CO)cn(C)c3=O)cc21 (stereo not shown) [Compound 150, 6-tert-butyl-8-fluoro-2-[3-(hydroxymethyl)-4-[1-methyl-5-[(4-methyl-6,7-dihydro-4H-pyrazolo[5,1-c][1,4]oxazin-2-yl)amino]-6-oxo-3-pyridyl]-2-pyridyl]phthalazin-1-one]
CD69 Hu Blood FACS (IC70): 0.0428 µM

CC(C)N1Cc2cc(Nc3cc(-c4ccnc(-n5ncc6cc(C(C)(C)C)cc(F)c6c5=O)c4CO)cn(C)c3=O)nn2CC1=O [Compound 151, 6-tert-butyl-8-fluoro-2-[3-(hydroxymethyl)-4-[5-[(5-isopropyl-6-oxo-4,7-dihydropyrazolo[1,5-a]pyrazin-2-yl)amino]-1-methyl-6-oxo-3-pyridyl]-2-pyridyl]phthalazin-1-one]
CD69 Hu Blood FACS (IC70): 0.0141 µM

Cn1cc(-c2ccnc(-n3ncc4cc(C(C)(C)C)cc(F)c4c3=O)c2CO)cc(Nc2cc[nH]n2)c1=O [Compound 152, 6-tert-butyl-8-fluoro-2-[3-(hydroxymethyl)-4-[1-methyl-6-oxo-5-(1H-pyrazol-3-ylamino)-3-pyridyl]-2-pyridyl]phthalazin-1-one]
CD69 Hu Blood FACS (IC70): 0.0459 µM

CN1CCn2nc(Nc3cc(-c4ccnc(-n5ncc6cc(C(C)(C)C)cc(F)c6c5=O)c4CO)nn(C)c3=O)cc2C1 [Compound 153, 6-tert-butyl-8-fluoro-2-[3-(hydroxymethyl)-4-[1-methyl-5-[(5-methyl-6,7-dihydro-4H-pyrazolo[1,5-a]pyrazin-2-yl)amino]-6-oxo-pyridazin-3-yl]-2-pyridyl]phthalazin-1-one]
CD69 Hu Blood FACS (IC70): 0.0596 µM

Cn1nc(-c2ccnc(-n3ncc4cc(C(C)(C)C)cc(F)c4c3=O)c2CO)cc(Nc2cc3n(n2)CCN(C2COC2)C3)c1=O [Compound 155, 6-tert-butyl-8-fluoro-2-[3-(hydroxymethyl)-4-[1-methyl-5-[[5-(oxetan-3-yl)-6,7-dihydro-4H-pyrazolo[1,5-a]pyrazin-2-yl]amino]-6-oxo-pyridazin-3-yl]-2-pyridyl]phthalazin-1-one]
CD69 Hu Blood FACS (IC70): 0.0266 µM

Cn1cc(-c2ccnc(-n3ncc4cc(C(C)(C)C)cc(F)c4c3=O)c2CO)cc(Nc2ccc(C(C)(C)C#N)cn2)c1=O [Compound 156, 2-[6-[[5-[2-(6-tert-butyl-8-fluoro-1-oxo-phthalazin-2-yl)-3-(hydroxymethyl)-4-pyridyl]-1-methyl-2-oxo-3-pyridyl]amino]-3-pyridyl]-2-methyl-propanenitrile]
CD69 Hu Blood FACS (IC70): 0.031 µM

Cc1cc(Nc2cc(-c3ccnc(-n4ncc5cc(C(C)(C)C)cc(F)c5c4=O)c3CO)cn(C)c2=O)ns1 [Compound 157, 6-tert-butyl-8-fluoro-2-[3-(hydroxymethyl)-4-[1-methyl-5-[(5-methylisothiazol-3-yl)amino]-6-oxo-3-pyridyl]-2-pyridyl]phthalazin-1-one]
CD69 Hu Blood FACS (IC70): 0.157 µM

CCc1cc(Nc2cc(-c3ccnc(-n4ncc5cc(C(C)(C)C)cc(F)c5c4=O)c3CO)cn(C)c2=O)no1 [Compound 158, 6-tert-butyl-2-[4-[5-[(5-ethylisoxazol-3-yl)amino]-1-methyl-6-oxo-3-pyridyl]-3-(hydroxymethyl)-2-pyridyl]-8-fluoro-phthalazin-1-one]
CD69 Hu Blood FACS (IC70): 0.0667 µM

Cn1cc(-c2ccnc(-n3ncc4cc(C(C)(C)C)cc(F)c4c3=O)c2CO)cc(Nc2cnn(C(F)F)n2)c1=O [Compound 159, 6-tert-butyl-2-[4-[5-[[2-(difluoromethyl)triazol-4-yl]amino]-1-methyl-6-oxo-3-pyridyl]-3-(hydroxymethyl)-2-pyridyl]-8-fluoro-phthalazin-1-one]
CD69 Hu Blood FACS (IC70): 0.208 µM

Cn1cc(-c2ccnc(-n3ncc4cc(C(C)(C)C)cc(F)c4c3=O)c2CO)cc(Nc2cnccn2)c1=O [Compound 160, 6-tert-butyl-8-fluoro-2-[3-(hydroxymethyl)-4-[1-methyl-6-oxo-5-(pyrazin-2-ylamino)-3-pyridyl]-2-pyridyl]phthalazin-1-one]
CD69 Hu Blood FACS (IC70): 0.116 µM
